# From patent publication US12233063B2, “Compositions and methods for treating eye disorders” (THE REGENTS OF THE UNIVERSITY OF MICHIGAN, priority 2017, dated 2025)
# Read-outs that look alike come from different tables or passages of the source.
# Key:
# [1] = Ocular pharmacokinetics after single intravitreal injection, aqueous humor; type: in vivo, Dutch-belted rabbits; conditions: male, Dutch-belted, other: intravitreal, rabbit aqueous humor
# Procedure: Pharmacokinetics. Pharmacokinetic studies were performed in Dutch-belted rabbits. As previously described, male rabbits were anesthetized with inhalant anesthesia (sevoflurane) prior to each aqueous humor collection or intravitreal injection. An external heat source was used to prevent hypothermia. […] A Flynn pediatric lid speculum was placed in the eye and betadine was applied to the injection site. The temporal sclera was marked with a caliper 2 mm from the limbus. […] Delivery of the compound into the eye was confirmed via clinical inspection (Smith, A. et al. J Ocul Pharmacol Ther 34, 477-485 (2018)). An aqueous humor sample (100 microliters) was collected from each eye prior to intravitreal injection to serve as a baseline control. A 30-gauge needle on a 1 ml syringe was used to enter the anterior chamber of the eye and aspirate the aqueous humor in a controlled fashion. […] Samples were analyzed by LC-MS/MS (liquid chromatography-mass spectrometry/mass spectrometry). […] Rabbits are the most commonly used animals in intravitreal pharmacokinetic studies with good correlation to the human eye (Del Amo, E. M. & Urtti, A. Exp. Eye Res. 137, 111-124 (2015)). As described above, two different concentrations were injected into the vitreous of rabbits, and the aqueous humor was sampled at various times thereafter. […]
# human recombinant PKM2 = target: T1, human recombinant PKM2 (Homo sapiens, UniProt P14618); assay: Pyruvate kinase activity enzyme assay, recombinant enzyme (LDH-coupled); type: biochemical; conditions: read-out: max activation
# T1 construct: purchased Sigma SAE0021
# Procedure: Pyruvate Kinase Activity Enzyme Assay. Recombinant Enzyme. A continuous, enzyme-coupled assay, which uses lactate dehydrogenase (LDH) and measures the depletion of NADH via absorbance at 340 nm was utilized to determine the pyruvate kinase activity. […] The decrease in absorbance at 340 nm was monitored using a Spectrostar Omega plate reader (BMG LABTECH Inc., Cary, NC, USA). Initial velocities were calculated with the MARS software. Data were normalized to DMSO (dimethyl sulfoxide)-treated PKM2 activity.
# caspase 8 [2] = assay: Caspase 8 activity assay in 661W cells; type: cell-based; conditions: 8 hours
# Procedure: (§1) Caspase Activity Assay. Luminescent assay kits (Caspase-Glo 8 and 3/7 Assay Systems, Promega, Madison, WI, Cat Nos. G8200 and G8090, respectively) were utilized to measure caspase 8 and caspase 3/7 activity according to the manufacturer's instructions. The 661W cells were seeded in white-walled 96-well plates at 2,500 cells/well for 24 hours prior to treatment. […] Caspase activity was measured at 8 hours status post treatment by incubating the cells with substrate for 1 hour according to the manufacturer's instructions. Luminescence was measured in a plate reader luminometer (BMG Labtech, Inc, Cary, NC).
# caspase 3/7 = assay: Caspase 3/7 activity assay in 661W cells; type: cell-based; conditions: 8 hours
# Procedure: as §1
# pyruvate kinase (PK) = target: T2, pyruvate kinase (PK) (Rattus norvegicus, UniProt P11980); assay: In vivo pyruvate kinase activation in rat retina after intravitreal injection; conditions: rats
# T2 construct: from tissue; host or cells: retina of Brown-Norway adult rats
# Procedure: Animals. Intravitreal injections of ML-265 or vehicle (DMSO) were performed in Brown-Norway, adult rats. Rodents were anesthetized with a mix of ketamine (100 mg/mL) and xylazine (20 mg/mL), and pupils were dilated with topical phenylephrine (2.5%) and tropicamide (1%). A 25-gauge microvitreoretinal blade (Walcott Rx Products, Ocean View, N.J.) was used to create a sclerotomy located 1-2 mm posterior to the limbus with care taken to avoid lens damage. A blunt, 34-gauge cannula was introduced through the sclerotomy into the vitreous cavity. […] Four hours after intravitreal injection, retinas from experimental rat eyes were dissected from the RPE-choroid, homogenized, and lysed in RIPA Lysis and Extraction Buffer with protease inhibitors. The assay was carried out using 4 microliters of rat retinal lysate in an enzyme buffer mixture (50 mM Tris-HCl, pH 7.4, 100 mM KCl, 5 mM MgCl2, 1 mM ADP, 0.5 mM PEP, and 0.2 mM NADH) and 8 units of LDH similar to what has been previously described (Wubben et al., supra; Raj ala et al., supra). Pyruvate kinase activity was normalized to total protein in each retinal lysate.
# The retinas of these animals were then harvested 15 days after injection and assayed for PK activity (FIG. 20).
# 661W cells = assay: Cell viability of 661W cells (RealTime-Glo MT); type: cell-based; conditions: 48 hours; for cell viability above DMSO-treated cells in standard tissue culture conditions / less cell death as compared to vehicle: FasL
# Procedure: Cell viability. Cell viability was measured using a luminescent assay kit not based on ATP (RealTime-Glo MT Cell Viability Assay, Promega, Madison, WI, Cat No. G9711). 661W cells were seeded in 96-well plates (Nunc, Rochester, NY) at 2,500 cells/well 24 hours prior to treatment. […] Cell viability was measured 48 hours after treatment according to the manufacturer's instructions. […] Viability was again assessed at 48 hours after addition of FasL and HA Luminescence was measured in a plate reader luminometer (BMG Labtech, Inc, Cary, NC).
# [3] = tested on: genes involved in glucose metabolism; assay: Quantitative PCR of glucose metabolism genes in treated rat retinas; type: in vivo; conditions: 2 μL of 7.5 mM intravitreal, 3 days, fold change cut-off of 2, vs untreated and DMSO
# Procedure: Quantitative Real-Time PCR. Intravitreal injections of ML-265 or vehicle (DMSO) were performed in Brown-Norway, adult rats as described above. […] Left eyes were injected with ML-265 or DMSO. The right eye served as the control, with all steps of the procedure performed, except for introduction of the blunt cannula and injection of ML-265 or DMSO. Retinas were harvested 3 days post-injection.
# Total RNA was purified from retinal tissues of rats using RNeasy Mini kit (Qiagen, Cat No./ID: 74104) and QIAshredder (Qiagen, Cat No./ID: 79654). cDNA was synthesized using RT^2 First Strand Kit (Cat. No./ID: 330401) according to the manufacturer's instructions. Quantitative PCR was performed in at least triplicate for the different experimental groups using the Rat Glucose Metabolism RT^2 Profiler™ PCR Array (Qiagen, Cat No./ID: PARN-006Z). This PCR array allows simultaneous profiling of 84 genes involved in glucose metabolism and includes housekeeping genes for normalization. Reactions were performed and monitored using a CFX96 real time PCR system (Bio-Rad Laboratories), 1 cycle at 95° C. for 10 min followed by 40 cycles at 95° C. for 15 sec, 60° C. for 1 min. Data analysis was performed using the RT^2 Profiler™ PCR Array Data Analysis Template from Qiagen. Those genes whose relative expression level was low or not detected in all experimental groups were excluded from analysis. […]
# H1299 cell xenografts = conditions: cited from earlier work
# [4] = target: T3, pyruvate kinase (PK) in 661W cells (Mus musculus, UniProt P52480); assay: Pyruvate kinase activity in lysates of 661W cells treated for 2 hours; type: cell-based; conditions: for AC50: 2 hours incubation
# T3 construct: endogenous in cells; host or cells: 661W photoreceptor cell line
# Procedure: Cell Culture. The 661W photoreceptor cell line was generously provided by Dr. Muayyad al-Ubaidi (Department of Cell Biology, University of Oklahoma Health Sciences Center, Oklahoma City, OK, USA) (al-Ubaidi, M. R. et al. J. Cell Biol. 119, 1681-1687 (1992)). The 661W cell line was maintained in Dulbecco's modified Eagle's medium containing 10% fetal bovine serum, 300 mg/L glutamine, 32 mg/L putrescine, 40 μL/L of β-mercaptoethanol, and 40 μg/L of both hydrocortisone 21-hemisuccinate and progesterone. The media also contained penicillin (90 units/mL) and streptomycin (0.09 mg/mL). Cells were grown at 37° C. in a humidified atmosphere of 5% CO2 and 95% air.
# Cell culture. For cell line experiments, media was replaced prior to the start of treatment with DMSO or ML-265. […] Cells were lysed and homogenized in RIPA Lysis and Extraction Buffer (Catalog number: 89900, Life Technologies Corporation, Grand Island, NY) with protease inhibitors (Complete-Mini, Roche Diagnostics, Indianapolis, IN) and clarified by centrifugation at 10,000 rpm for 10 minutes. Five microliters of the supernatant was used to assess pyruvate kinase activity, and the activity was normalized to total protein content as previously described (Walsh et al., supra).
# caspase 8 [5] = assay: Caspase 8 activity in experimental retinal detachment; type: in vivo, Brown-Norway rats; conditions: 3 days after retinal detachment, subretinal injection
# Procedure: Experimental Model of Retinal Detachment. Detachments were created in Brown-Norway, adult rats as previously described (Wubben et al., supra; Besirli et al., 2010 supra; Zacks, D. N. et al. Invest. Ophthalmol. Vis. Sci. 44, 1262-1267 (2003); Zacks, D. N., et al. Invest. Ophthalmol. Vis. Sci. 45, 4563-4569 (2004); Besirli, C. G., et al. Invest. Ophthalmol. Vis. Sci. 52, 4193-4199 (2011)). Briefly, rodents were anesthetized with a mix of ketamine (100 mg/mL) and xylazine (20 mg/mL), and pupils were dilated with topical phenylephrine (2.5%) and tropicamide (1%). A 25-gauge microvitreoretinal blade (Walcott Rx Products, Ocean View, N.J.) was used to create a sclerotomy located 1-2 mm posterior to the limbus with care taken to avoid lens damage. […]
# 1 tablet of protease inhibitor (Complete Mini; Roche Diagnostics, Indianapolis, IN) and 1 tablet of phosphatase inhibitor (PhosSTOP; Roche Diagnostics, Indianapolis, IN) per 10 mL were added to the lysis buffer. The homogenates were centrifuged at 10,000 g for 10 minutes at 4° C., and total protein concentration of the supernatant was determined using a Micro BCA protein assay kit (ThermoScientific, Rockford, IL). Substrate was incubated with 50 μg of protein in a white-walled 96 well-plate at room temperature for 1 hour and luminescence was measured as above. […]
# [6] = 500 ng/mL FasL and 250 ng/mL HA
# [7] = standard tissue culture conditions
# [8] = 15 days after single intravitreal injection of 2 μL of 7.5 mM
# T2 sequence (P11980 1-531 isoform P11980-2): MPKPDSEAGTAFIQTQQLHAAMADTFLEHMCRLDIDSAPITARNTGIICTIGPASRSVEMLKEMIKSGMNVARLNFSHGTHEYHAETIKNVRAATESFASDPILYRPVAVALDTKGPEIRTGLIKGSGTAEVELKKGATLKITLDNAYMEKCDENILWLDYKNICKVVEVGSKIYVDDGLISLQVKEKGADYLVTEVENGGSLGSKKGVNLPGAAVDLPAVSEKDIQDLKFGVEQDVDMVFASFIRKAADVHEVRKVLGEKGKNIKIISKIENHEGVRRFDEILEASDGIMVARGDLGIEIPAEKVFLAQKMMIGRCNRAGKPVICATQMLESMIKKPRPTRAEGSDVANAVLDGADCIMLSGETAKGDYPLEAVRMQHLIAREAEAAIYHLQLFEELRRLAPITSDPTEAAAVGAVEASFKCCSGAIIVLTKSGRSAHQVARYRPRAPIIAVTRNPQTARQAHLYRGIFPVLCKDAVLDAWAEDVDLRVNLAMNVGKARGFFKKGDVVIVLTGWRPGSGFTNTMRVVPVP
# T3 sequence (P52480 whole entry): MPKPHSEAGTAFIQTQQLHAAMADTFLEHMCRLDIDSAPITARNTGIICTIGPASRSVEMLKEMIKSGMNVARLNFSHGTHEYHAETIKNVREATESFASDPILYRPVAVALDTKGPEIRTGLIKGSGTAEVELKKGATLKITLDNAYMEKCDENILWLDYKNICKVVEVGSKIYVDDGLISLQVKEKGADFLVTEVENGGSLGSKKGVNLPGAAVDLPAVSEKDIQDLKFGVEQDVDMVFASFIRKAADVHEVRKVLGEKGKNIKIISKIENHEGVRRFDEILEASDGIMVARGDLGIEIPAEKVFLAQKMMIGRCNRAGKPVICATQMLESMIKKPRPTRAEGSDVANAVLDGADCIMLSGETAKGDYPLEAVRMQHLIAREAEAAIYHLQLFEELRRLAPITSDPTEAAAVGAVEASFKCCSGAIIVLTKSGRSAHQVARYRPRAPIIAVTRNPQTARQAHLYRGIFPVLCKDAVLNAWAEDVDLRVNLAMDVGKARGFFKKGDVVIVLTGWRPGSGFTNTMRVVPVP
# T1 sequence (P14618 whole entry): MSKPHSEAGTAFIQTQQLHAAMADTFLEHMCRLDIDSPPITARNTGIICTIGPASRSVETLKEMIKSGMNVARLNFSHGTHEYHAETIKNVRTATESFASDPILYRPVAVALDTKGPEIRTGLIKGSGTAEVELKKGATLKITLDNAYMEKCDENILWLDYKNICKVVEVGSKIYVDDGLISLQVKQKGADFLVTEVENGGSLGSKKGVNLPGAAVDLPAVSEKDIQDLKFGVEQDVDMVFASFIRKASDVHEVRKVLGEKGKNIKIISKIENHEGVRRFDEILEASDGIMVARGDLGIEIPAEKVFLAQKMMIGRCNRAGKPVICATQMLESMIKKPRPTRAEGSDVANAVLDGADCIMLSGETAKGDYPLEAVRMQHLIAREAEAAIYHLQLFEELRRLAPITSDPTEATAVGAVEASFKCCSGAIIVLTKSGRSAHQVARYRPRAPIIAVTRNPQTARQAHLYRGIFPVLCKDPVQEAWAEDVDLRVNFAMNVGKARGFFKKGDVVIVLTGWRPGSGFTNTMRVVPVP
structure (smiles),measurement,setting,value
Cn1c2cc([S+](C)[O-])sc2c2cnn(Cc3cccc(N)c3)c(=O)c21 (stereo not drawn) [ML-265],half-life,"[1]; 23 mM, 50 microliters per eye, highest concentration (1 mM final vitreous), read-out: t1/2 terminal phase (converted)",177 h
same,half-life,"[1]; between 6 and 48 hours, 100 μM and 1 mM final vitreous concentration, read-out: t1/2 initial phase (converted)",7.8 h
same,Emax,human recombinant PKM2,> 250%
same,caspase 8 activation,caspase 8 [2]; [6],significantly decreased
same,caspase 8 activity,caspase 8 [2]; [7],no significant effect
same,caspase 3/7 activation,caspase 3/7; [6],significantly decreased
same,caspase 3/7 activity,caspase 3/7; [7],no significant effect
same,Emax,"pyruvate kinase (PK); rat, intravitreal injection, saturating concentrations, read-out: maximum activation of PK",≤ 170%
same,average in vivo PK activation,pyruvate kinase (PK); [8],43%
same,median PK activation above DMSO treated retinas,pyruvate kinase (PK); [8],38%
same,AC50,"pyruvate kinase (PK); intravitreal injection, retinas 4 hours after injection",59 nM
same,maximum activation of PK,"pyruvate kinase (PK); intravitreal injection, saturating concentrations",170%
same,cell viability above DMSO-treated cells in standard tissue culture conditions,661W cells; 200 nM ML-265,2%
same,less cell death as compared to vehicle,661W cells; 200 nM ML-265,109%
same,cell viability above DMSO-treated cells in standard tissue culture conditions,661W cells; 2 μM ML-265,6%
same,less cell death as compared to vehicle,661W cells; 2 μM ML-265,123%
same,cell viability,661W cells; [7],no significant effect
same,"normalized gene expression patterns, glucose metabolism genes",[3],very similar
same,tumor size and occurrence,H1299 cell xenografts; mice bearing H1299 cell xenografts,reduce tumor size and occurrence
same,toxicity,H1299 cell xenografts; over 7 weeks of continuous drug exposure,No toxicity was observed
same,increase in PK activity,[4],236%
same,AC50,[4],comparable to that with recombinant protein
same,AC50,[4]; read-out: AC50,22 nM
same,caspase 8 activity vs vehicle,caspase 8 [5],statistically significantly less
